Results published in paper PMC9029746, “Discovery of Azaindolin-2-One as a Dual Inhibitor of GSK3β and Tau Aggregation with Potential Neuroprotective Activity” (Pharmaceuticals, 2022).
“Also recorded” adds a separate entry of the source. Where two headings read alike, the source gives them in different places.

Columns and labels:
[1] = tested on: PBMC; assay: MTT assay, cytotoxicity on normal blood cells; type: cell-based; settings: Homo sapiens, 72 h, read-out: IC50 (µM) after 72 h Drug Treatment, PBMC
Protocol: (§1) The human cervical carcinoma cell line HeLa, obtained from the American Type Culture Collection (ATCC), was cultured in Dulbecco’s modified Eagle’s medium (DMEM) supplemented with 5% heat-inactivated fetal bovine serum (FBS). The human glioblastoma cell line U251 (obtained from ATCC), colon carcinoma cell line HCT116 [provided by the RIKEN BRC through the National Bio-Resource Project of the MEXT/AMED, Japan (RCB2979)], and human melanoma cell line A375, obtained from ATCC, were cultured in DMEM supplemented with 10% heat-inactivated FBS. The human chronic myelogenous leukemia cell line K562 and human peripheral blood mononuclear cells (PBMC), both cells obtained from ATCC, were cultured in RPMI 1640 supplemented with 10% heat-inactivated FBS described previously.
(§2) Cells were seeded in a 24-well plate, and the compounds were added. After incubation for 3 days, a solution (1.1 mg/mL) of 3-(4,5-dimethylthiazol-2-yl)-2,5-diphenyl-2H-tetrazolium bromide (MTT, from DOJINDO Laboratories, Kumamoto, Japan) was added, and MTT assay was performed as previously described.

[2] = tested on: A375; assay: MTT assay, cytotoxicity; type: cell-based; settings: Homo sapiens, A-375, 72 h; read-out: IC50 (µM) after 72 h Drug Treatment, A375
Protocol: as §1, §2

[3] = tested on: U251; assay: MTT assay, cytotoxicity; type: cell-based; settings: Homo sapiens, U-251, 72 h; read-out: IC50 (µM) after 72 h Drug Treatment, U251
Protocol: as §1, §2

[4] = tested on: K562; assay: MTT assay, cytotoxicity; type: cell-based; settings: Homo sapiens, K562, 72 h; read-out: IC50 (µM) after 72 h Drug Treatment, K562
Protocol: as §1, §2

[5] = tested on: HCT-116; assay: MTT assay, cytotoxicity; type: cell-based; settings: Homo sapiens, HCT-116, 72 h; read-out: IC50 (µM) after 72 h Drug Treatment, HCT-116
Protocol: as §1, §2

[6] = biological target: T1, tau 2N4R isoform carrying P301L mutation (Homo sapiens, UniProt P10636, P618L); assay: Tau aggregation inhibition in a cell model of tauopathy (Tau Aggregation Assay Kit, HeLa cells); type: cell-based; settings: for anti-tau aggregation effect: Hela cells, seed+; for inhibitory activity against tau aggregation: 1, 3, 10, and 30 µM overall
T1 construct: host or cells: HeLa cells
T1 sequence (P10636 1-441 isoform P10636-8 P301L): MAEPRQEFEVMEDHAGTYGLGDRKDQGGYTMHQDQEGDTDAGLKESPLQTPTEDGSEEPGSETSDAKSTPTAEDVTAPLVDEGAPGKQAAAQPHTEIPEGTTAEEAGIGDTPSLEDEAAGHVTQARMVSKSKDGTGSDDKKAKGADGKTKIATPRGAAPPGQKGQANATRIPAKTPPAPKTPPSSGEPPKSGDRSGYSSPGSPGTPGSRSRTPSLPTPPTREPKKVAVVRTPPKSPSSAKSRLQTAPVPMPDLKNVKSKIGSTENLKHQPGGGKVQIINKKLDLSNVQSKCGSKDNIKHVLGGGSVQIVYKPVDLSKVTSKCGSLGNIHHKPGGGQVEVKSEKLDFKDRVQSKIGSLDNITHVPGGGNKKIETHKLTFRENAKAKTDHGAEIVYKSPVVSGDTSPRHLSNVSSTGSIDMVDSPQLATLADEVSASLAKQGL
Protocol: Aggregation of Tau is observed using Hela cells transduced with the expression vector of tau 2N4R isoform carrying P301L mutation and fibrils of tau protein with P301L mutation as seed. We tested the anti-aggregation effects of (E)-2f and 3a at four different concentrations, namely (1 µM, 3 µM, 10 µM, 30 µM), the measurements combined with negative seed (negative control = normal aggregation level), and positive seed (positive control = AD aggregation levels). In other words, seed— and + indicate the absence and presence of fibrils of tau protein with P301L mutation as seed, respectively.
Figure 9 Anti-tau aggregation activity of compounds (E)-2f and 3a at 1, 3, 10, and 30 µM concentrations. (A) Tau proteins were stained with green fluorescence in HeLa cells transfected with the expression vector of tau 2N4R isoform carrying P301L mutation and incubated with the compounds. Microscopic observation was performed, and photos were shown on a 100 µm scale. Seed negative (seed−) and seed positive (seed+) indicate the absence and presence of fibrils of tau protein with P301L mutation, respectively. (B) Relative green spots per area (%) after exposure of Hela cells to compounds (E)-2f and 3a are compared to seed positive (seed+ = 100%). ImageJ counted more than 100 spots in the same area in each sample. *: denotes significant difference from control (seed+) at p < 0.05, **: denotes significant difference from control (seed+) at p < 0.01.
According to the manufacturer’s protocol, the assay was performed using Tau Aggregation Assay Kit (Cosmo Bio, Tokyo, Japan [catalog number: TAU01]). Briefly, HeLa cells were transfected with pCMV-Tau(2N4R)-P301L (20 ng) using Lipofectamine 3000 (ThermoFisher Scientific, Waltham, MA, USA) and treated with F-Tau (RD)-P301L (fibrils of tau protein with P301L mutation as seed, included in the assay kit). Drugs were added after 6 h, and the cells were incubated for 1 day. Next, immunostaining was performed basically as previously described. Tau proteins were stained with green fluorescence. In this staining, a TAU antibody (Proteintech, Rosemont, IL, USA [catalog number: 10274-1-AP]) was used as the first antibody, and goat anti-rabbit IgG (H + L) highly cross-adsorbed secondary antibody, Alexa Fluor 488 ThermoFisher Scientific) was used as the second antibody. An All-in-One Fluorescence Microscope BIOREVO BZ-9000 (Keyence, Osaka, Japan) was used as the microscope. ImageJ counted more than 100 spots in the same area in each sample [40, 41].

[7] = tested on: total tau; assay: Western blot analysis of total tau in Hela cells; type: cell-based, human; settings: 10 and 30 µM, 24 h, GAPDH normalization
Protocol: Western blot analysis was then used to confirm the amount of the total tau in Hela cells used for microscopic observation. The lysate of Hela cells, after incubation with compounds (E)-2f and 3a at 10 and 30 µM concentrations, were analyzed by immunoblotting using the same anti-Tau antibody (Figure S42). ImageJ was used to quantify the total tau at each concentration and compared to the total tau level of Hela cells with positive seed (seed+) alone as a control.
Figure 10 Effect of compounds (E)-2f and 3a on Tau levels. HeLa cells transfected with the expression vector of tau 2N4R isoform carrying P301L mutation and incubated with compounds (E)-2f and 3a at 10 and 30 µM concentrations for 24 h. Then Hela cells were lysed, and the lysates were analyzed by Western blotting. The relative amount of total tau expressed in the total cell lysate of Hela cells of each lane was quantified by ImageJ. The total tau level of Hela cells with positive seed (seed+) alone was calculated from total tau after GAPDH normalization and is presented as Control (1.00).
Western blot analysis was performed by lysing Hela cells in PBS/Laemmli sample buffer (1:1) as described previously. […] Chemiluminescence detected immunoreactivity using ImmunoStar LD (FUJIFILM-Wako, Osaka, Japan).

[8] = biological target: T2, human recombinant GSK3β (Homo sapiens, UniProt P49841); assay: GSK3β inhibition assay (GSK3β Kinase Enzyme System, ADP-Glo Kinase Assay); type: biochemical; settings: for inhibition at 10 µM: read-out: percentage inhibition of GSK3β
T2 construct: purchased Promega Corporation, Madison, WI, USA (GSK3β Kinase Enzyme System)
T2 sequence (P49841 whole entry): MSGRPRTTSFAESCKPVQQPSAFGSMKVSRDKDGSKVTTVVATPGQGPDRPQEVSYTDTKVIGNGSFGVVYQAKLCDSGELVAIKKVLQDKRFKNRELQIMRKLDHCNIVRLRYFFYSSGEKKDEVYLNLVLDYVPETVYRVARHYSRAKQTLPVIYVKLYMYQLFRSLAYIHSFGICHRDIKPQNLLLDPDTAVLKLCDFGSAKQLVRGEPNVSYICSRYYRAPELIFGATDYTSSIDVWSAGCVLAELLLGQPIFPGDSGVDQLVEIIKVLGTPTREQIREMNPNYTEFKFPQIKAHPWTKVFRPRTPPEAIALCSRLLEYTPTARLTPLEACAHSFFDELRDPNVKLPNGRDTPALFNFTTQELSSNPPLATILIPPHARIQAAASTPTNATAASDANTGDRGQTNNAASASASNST
Protocol: Screening of GSK3β inhibition activity for our new library was conducted using the […] luminescence assay to determine how much ATP is reduced after a kinase reaction.
According to the manufacturer’s protocol, the assay was conducted using GSK3β Kinase Enzyme System and ADP-Glo Kinase Assay (Promega Corporation, Madison, WI, USA) in 384-well plates. The kinase reaction was performed at room temperature using 2 ng/μL of human recombinant GSK3β, 0.2 μg/μL of GSK3 substrate ([…] (pS) EDEEE; amino acids 636–661), and 25 μM ATP in 4X kinase buffer containing 50 μM DTT. The compounds were added to enzyme solution and incubated for 2 h at room temperature. Then, kinase activity was quantified using the ADP-Glo Kinase Assay as previously described.

[9] = tested on: GSK3β; settings: cited from earlier work
[10] = biological target: beta-amyloid (Aβ); parameters: method as in PMID 17761424; settings: cited from earlier work
[11] = biological target: alpha-synuclein (α-syn); parameters: method as in PMID 17761424; settings: cited from earlier work
[12] = biological target: tau fibrils; parameters: method as in PMID 17761424; settings: cited from earlier work

**Q.** What does the source list for `CN(C)c1ccc(C=C2C(=O)Nc3ncccc32)cc1` (mixture of isomers) [Compound 3a, (E/Z)-3-(4-(dimethylamino)benzylidene)-1,3-dihydro-2H-pyrrolo [2,3-b]pyridin-2-one]?
**A.** IC50 [1]: 94.5 µM; IC50 [2]: > 100 µM; IC50 [3]: 10.3 µM; IC50 [4]: 4.7 µM; IC50 [5]: 9.8 µM; anti-tau aggregation effect ([6]; 30 µM): completely protected Hela cells from tau aggregates; inhibitory activity against tau aggregation [6]: concentration-dependent inhibitory activity; total tau level compared to Hela cells with seed+ alone [7]: little or no difference; also recorded: minimal effect

**Q.** With `O=C1Nc2ccccc2/C1=C\c1ccccn1` [(E)-2a, (E)-3-(pyridin-2-ylmethylene)indolin-2-one] as the compound, how does the IC50 [8] read?
**A.** > 10 µM

**Q.** And the IC50 [9]?
**A.** 4.16 nM

**Q.** For `O=C1Nc2ccc(Cl)cc2/C1=C\c1ccccn1` [(E)-2b, (E)-5-chloro-3-(pyridin-2-ylmethylene)indolin-2-one], which IC50 ([8]; read-out: IC50 (µM) GSK3β) is on record?
**A.** > 10 µM

**Q.** Which inhibition at 10 µM [8] does the source give for `O=C1Nc2cc(Cl)ccc2/C1=C\c1ccccn1` [(E)-2c, (E)-6-chloro-3-(pyridin-2-ylmethylene)indolin-2-one] here?
**A.** 45%

**Q.** And the IC50 ([8]; read-out: IC50 (µM) GSK3β)?
**A.** > 10 µM

**Q.** For `O=C1Nc2ccc(F)cc2/C1=C\c1ccccn1` [(E)-2d, (E)-5-fluoro-3-(pyridin-2-ylmethylene)indolin-2-one], which inhibition at 10 µM [8] is on record?
**A.** < 30%

**Q.** What about the IC50 ([8]; read-out: IC50 (µM) GSK3β) of the same compound?
**A.** > 10 µM

**Q.** Which inhibition at 10 µM [8] does the source give for `O=C1Nc2cc(F)ccc2/C1=C\c1ccccn1` [(E)-2e, (E)-6-fluoro-3-(pyridin-2-ylmethylene)indolin-2-one] here?
**A.** < 30%

**Q.** What about the IC50 ([8]; read-out: IC50 (µM) GSK3β) of the same compound?
**A.** > 10 µM

**Q.** For `O=C1Nc2ncccc2/C1=C\c1ccccn1` [(E)-2f, (E)-3-(pyridin-2-ylmethylene)-1,3-dihydro-2H-pyrrolo [2,3-b]pyridin-2-one], which IC50 [1] is on record?
**A.** > 300 µM

**Q.** And the IC50 [2]?
**A.** 14 µM

**Q.** And the IC50 [3]?
**A.** 28.2 µM

**Q.** And the IC50 [4]?
**A.** 13.8 µM

**Q.** What about the IC50 [5] of the same compound?
**A.** 12.8 µM

**Q.** What about the inhibition at 10 µM [8] of the same compound?
**A.** 76.4%

**Q.** And the IC50 ([8]; read-out: IC50 (µM) GSK3β)?
**A.** 1.7 µM

**Q.** What about the anti-tau aggregation effect ([6]; 1 µM) of the same compound?
**A.** no efficacy

**Q.** And the anti-tau aggregation effect ([6]; 3 µM)?
**A.** moderate efficacy

**Q.** And the anti-tau aggregation effect ([6]; 10 µM)?
**A.** significant anti-aggregation effect

**Q.** And the anti-tau aggregation effect ([6]; 30 µM)?
**A.** completely protected Hela cells from tau aggregates

**Q.** What about the “inhibitory activity against tau aggregation” value [6] of the same compound?
**A.** pronounced tau anti-aggregation effect; also recorded: concentration-dependent inhibitory activity

**Q.** What about the “total tau level compared to Hela cells with seed+ alone” value [7] of the same compound?
**A.** little or no difference; also recorded: minimal effect

**Q.** Which IC50 ([8]; read-out: IC50 (µM) GSK3β) does the source give for `CCN(CC)c1ccc(/C=C2/C(=O)Nc3ncccc32)cc1` [(E)-3b] here?
**A.** 3 µM

**Q.** With `CN(C)c1ccnc(/C=C2/C(=O)Nc3ncccc32)c1` [(E)-3c] as the compound, how does the IC50 ([8]; read-out: IC50 (µM) GSK3β) read?
**A.** 3.2 µM

**Q.** Which IC50 ([8]; read-out: IC50 (µM) GSK3β) does the source give for `O=C1Nc2ncccc2/C1=C\c1ccncc1` [(E)-3d] here?
**A.** 5.9 µM

**Q.** Which IC50 ([8]; read-out: IC50 (µM) GSK3β) does the source give for `CN(C)c1ccc(/C=C2\C(=O)Nc3ncccc32)cc1` [(Z)-3a] here?
**A.** 1.9 µM

**Q.** For `CCN(CC)c1ccc(/C=C2\C(=O)Nc3ncccc32)cc1` [(Z)-3b], which IC50 ([8]; read-out: IC50 (µM) GSK3β) is on record?
**A.** 3 µM

**Q.** Which IC50 ([8]; read-out: IC50 (µM) GSK3β) does the source give for `O=C1Nc2ncccc2/C1=C/c1ccncc1` [(Z)-3d] here?
**A.** 5.9 µM

**Q.** Which IC50 ([9]; in vitro) does the source give for `Cn1cc(-c2[nH][nH]c(=O)c2-c2cn(C)c3ccccc23)c2ccccc21` [III] here?
**A.** 34 nM

**Q.** With `COc1ccc2c(c1)c(/C=C1\SC(=O)NC1=O)cn2C` [IV] as the compound, how does the IC50 [9] read?
**A.** 890 nM

**Q.** For `Clc1cc(-c2c[nH]c3ncccc23)cc(NC2CCCCC2)n1` [Native ligand], which Ki [9] is on record?
**A.** 58 nM

**Q.** For `CN(C)c1ccc(/C=C2/C(=O)Nc3ccccc32)cc1` [VII], which Ki [10] is on record?
**A.** 140 nM

**Q.** What about the Ki [11] of the same compound?
**A.** 490 nM

**Q.** And the Ki [12]?
**A.** 95 nM

**Q.** With `O=C1NC(=S)S/C1=C\c1cccc(-c2ccc3c(c2)OCO3)n1` [V] as the compound, how does the IC50 [9] read?
**A.** 1600 nM
